Series [1] deals with T1, HIV integrase (Human immunodeficiency virus type 1 group M subtype B, UniProt P12497, F1332H).
T1 construct: HIV integrase full length gene; made in house; host or cells: Escherichia coli BL21(DE3)
Description: Determination of enzyme (HIV integrase) inhibitory activity (strand transfer, microtiter plate, absorbance at 450 nm). It counts as biochemical, HIV (Human Immunodeficiency Virus (type 1)). Conditions: recombinant HIV integrase (F185H) expressed in E. coli; donor DNA on streptavidin plate, digoxigenin target DNA; 37° C.

As for `O=C(O)c1cn(CCO)c2ccc(Cc3cccc(Cl)c3Cl)cc2c1=O` [Example 1-1, 6-(2,3-dichlorobenzyl)-1,4-dihydro-1-(2-hydroxyethyl)-4-oxo-3-quinolinecarboxylic acid], the melting point – broadly, the temperature, or range, at which the solid turns liquid – lay within 247 to 249 °C. The IC50 (in general, the concentration at which inhibition is half-maximal) in series [1] was determined as 29 nM.

The record behind these values is patent publication US8232401B2 (Japan Tobacco Inc., priority 2002, dated 2012).
